The record followed here is patent publication US10219516B2, “Molecules having pesticidal utility, and intermediates, compositions, and processes, related thereto” (priority 2015, dated 2019).

Holding throughout (format): in vivo
The test system of assay [1] is Beet Armyworm (Spodoptera exigua, LAPHEG). The experiment in a line: Bioassay on Beet Armyworm (BAW), 128-well diet tray assay. Summed up: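 In a 128-well format, eight wells per compound received a surface dose of 50 μg/cm^2 on artificial diet. After drying, each well got one to five second instar larvae, held at 25° C. with 14:10 photoperiod. Mortality percentages after five to seven days were averaged.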

Assay [2] relates to Cabbage Looper (Trichoplusia ni, TRIPNI). The experiment in a line: Bioassay on Cabbage Looper (CL), 128-well diet tray assay. The following applies: Trichoplusia ni. Summed up: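 Second-instar larvae, one to five per well, were placed on artificial diet surface-treated with 50 μg/cm^2 test molecule applied in 90:10 acetone-water and dried, eight wells per molecule. Trays were covered, vented and held at 25° C., 14:10 light-dark for five to seven days; percent mortality per well was averaged.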

Assay [3] deals with Yellow Fever Mosquito (Aedes aegypti, AEDSAE). The assay is described as follows: Bioassay on Yellow Fever Mosquito (YFM), 96-well plate larval assay. The following applies: for YFM (Biological Results, rating): Species YFM (Yellow Fever Mosquito); for YFM rating: Yellow Fever Mosquito, 96-well plate larval assay. Summed up: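 Aedes aegypti larvae (about 1 day old) in liver-powder water were added to plates dispensed from DMSO master plates (4000 ppm stock) diluted with 90:10 water/acetone; six replicate plates per master. Lidded plates were held at room temperature for 3 days, then each well was scored for mortality.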

Where [4] appears, read: Species BAW (Beet Armyworm), read-out: BAW (Biological Results, rating).
[5] abbreviates: Species CL (Cabbage Looper), read-out: CL (Biological Results, rating).
Setting [6] is: Beet Armyworm, 128-well diet tray assay, read-out: BAW rating.
The mark [7] stands for this setting: Cabbage Looper, 128-well diet tray assay, read-out: CL rating.

Read-outs that look alike come from different tables or passages of the source.

Consider `O=C(Nc1ncc(I)cc1F)c1cc(NC(=O)[C@H]2[C@H](c3cc(Cl)cc(Cl)c3)C2(Cl)Cl)ccc1Cl` (relative stereo) [F312, 2-Chloro-5-(trans)-(2,2-dichloro-3-(3,5-dichlorophenyl)cyclopropane-1-carboxamido)-N-(3-fluoro-5-iodopyridin-2-yl)benzamide], for which the pest or weed control at 50 µg/cm2 in assay [1] (setting [4]) and in assay [2] (setting [5]) was 50 to 100% in each case. Moreover, in assay [3], the “YFM (Biological Results, rating)” value was “A (80-100)”.

As to `O=C(Nc1ccc(Cl)nc1)c1cc(NC(=O)[C@H]2[C@H](c3cc(Cl)cc(Cl)c3)C2(Cl)Cl)ccc1Cl` (relative stereo) [F32, trans-2-Chloro-N-(6-chloropyridin-3-yl)-5-(2,2-dichloro-3-(3,5-dichlorophenyl)cyclopropane-1-carboxamido)benzamide], the pest or weed control at 50 µg/cm2 in assay [1] (setting [4]) and in assay [2] (setting [5]) was 50 to 100% in each case. For the same molecule, the “YFM (Biological Results, rating)” value in assay [3] was “A (80-100)”.

Consider `O=C(Nc1ccc(Cl)c(Cl)c1F)c1cc(NC(=O)C2C(c3cc(Cl)cc(Cl)c3)C2(Cl)Cl)ccc1Cl` (stereo not drawn) [PF127, 2-Chloro-N-(3,4-dichloro-2-fluorophenyl)-5-(trans)-2,2-dichloro-3-(3,5-dichlorophenyl)cyclopropane-1-carboxamido)benzamide], for which the pest or weed control at 50 µg/cm2 in assay [1] (setting [6]) and in assay [2] (setting [7]) was 50 to 100% in each case. In assay [3], the YFM rating entry is “A (80-100)”.

With `O=C(Nc1nnn[nH]1)c1cc(NC(=O)[C@H]2[C@H](c3cc(Cl)cc(Cl)c3)C2(Cl)Cl)ccc1Cl` (relative stereo) [PF130, trans-2-Chloro-5-(2,2-dichloro-3-(3,5-dichlorophenyl)cyclopropane-1-carboxamido)-N-(1H-tetrazol-5-yl)benzamide], the pest or weed control at 50 µg/cm2 in assay [1] (setting [6]) and in assay [2] (setting [7]) was 50 to 100% each time. Further, in assay [3], the YFM rating result is listed as “B (More than 0-Less than 80)”.

For `Nc1cc(NC(=O)c2cc(NC(=O)[C@H]3[C@H](c4cc(Cl)cc(Cl)c4)C3(Cl)Cl)ccc2Cl)c(F)cc1F` [F353, N-(5-Amino-2,4-difluorophenyl)-2-chloro-5-((1R,3R)-2,2-dichloro-3-(3,5-dichlorophenyl)cyclopropane-1-carboxamido)benzamide], the pest or weed control at 50 µg/cm2 in assay [1] (setting [4]) and in assay [2] (setting [5]) was 50 to 100% in each case. Besides, in assay [3], the “YFM (Biological Results, rating)” value was “A (80-100)”.

Consider `CNc1ccc(NC(=O)c2cc(NC(=O)[C@H]3[C@H](c4ccc(F)c(Cl)c4)C3(Cl)Cl)ccc2Cl)c(C)c1` (relative stereo) [F224, trans-2-Chloro-5-(2,2-dichloro-3-(3-chloro-4-fluorophenyl)cyclopropane-1-carboxamido)-N-(2-methyl-4-(methylamino)phenyl)benzamide], for which the pest or weed control at 50 µg/cm2 in assay [1] (setting [4]) and in assay [2] (setting [5]) was 50 to 100% in each case. Also, in assay [3], the “YFM (Biological Results, rating)” value is listed as “A (80-100)”.

With `Nc1ccc(F)c(NC(=O)c2cc(NC(=O)[C@H]3[C@H](c4cc(Cl)c(Cl)c(Cl)c4)C3(Cl)Cl)ccc2Cl)c1` [F429, N-(5-Amino-2-fluorophenyl)-2-chloro-5-((1R,3R)-2,2-dichloro-3-(3,4,5-trichlorophenyl)cyclopropane-1-carboxamido)benzamide], the pest or weed control at 50 µg/cm2 in assay [1] (setting [6]) and in assay [2] (setting [7]) was 50 to 100% throughout. Moreover, the YFM rating entry in assay [3] is listed as “A (80-100)”.

Take `O=C(Nc1ccc(F)cc1F)c1cc(NC(=O)[C@H]2[C@H](c3ccc(F)c(C(F)F)c3)C2(Cl)Cl)ccc1Cl` (relative stereo) [F561, 2-Chloro-5-(trans-2,2-dichloro-3-(3-(difluoromethyl)-4-fluorophenyl)cyclopropane-1-carboxamido)-N-(2,4-difluorophenyl)benzamide]: the pest or weed control at 50 µg/cm2 in assay [1] (setting [6]) and in assay [2] (setting [7]) was 50 to 100% throughout. For the same molecule, the YFM rating entry in assay [3] is “A (80-100)”.

Take `C=C(c1ccc(NC(=O)c2cc(NC(=O)[C@H]3[C@H](c4cc(Cl)cc(Cl)c4)C3(Cl)Cl)ccc2Cl)c(C)c1)C(F)(F)F` (relative stereo) [F258, 2-Chloro-5-(trans)-(2,2-dichloro-3-(3,5-dichlorophenyl)cyclopropane-1-carboxamido)-N-(2-methyl-4-(3,3,3-trifluoroprop-1-en-2-yl)phenyl)benzamide]: the pest or weed control at 50 µg/cm2 in assay [1] (setting [4]) and in assay [2] (setting [5]) was 50 to 100% in each case. Further, the “YFM (Biological Results, rating)” value in assay [3] is “B (More than 0-Less than 80)”.

`Nc1cc(F)ccc1NC(=O)c1cc(NC(=O)[C@H]2[C@H](c3cc(Cl)cc(Cl)c3)C2(Cl)Cl)ccc1Cl` [F575, N-(2-Amino-4-fluorophenyl)-2-chloro-5-((1R,3R)-2,2-dichloro-3-(3,5-dichlorophenyl)cyclopropane-1-carboxamido)benzamide]: the pest or weed control at 50 µg/cm2 in assay [1] (setting [6]) and in assay [2] (setting [7]) was 50 to 100% in each case. Also, in assay [3], the YFM rating result is recorded as “A (80-100)”.

Take `Nc1c(F)cnc(NC(=O)c2cc(NC(=O)[C@H]3[C@H](c4ccc(Cl)c(Cl)c4)C3(Cl)Cl)ccc2Cl)c1F` [F371, N-(4-Amino-3,5-difluoropyridin-2-yl)-2-chloro-5-((1R,3R)-2,2-dichloro-3-(3,4-dichlorophenyl)cyclopropane-1-carboxamido)benzamide]: the pest or weed control at 50 µg/cm2 in assay [1] (setting [4]) and in assay [2] (setting [5]) was 50 to 100% in each case. Besides, the “YFM (Biological Results, rating)” value in assay [3] is given as “A (80-100)”.

As for `Nc1c(F)ccc(NC(=O)c2cc(NC(=O)[C@H]3[C@H](c4cc(Cl)cc(Br)c4)C3(Cl)Cl)ccc2Cl)c1F` (relative stereo) [F339, N-(3-Amino-2,4-difluorophenyl)-5-(trans-3-(3-bromo-5-chlorophenyl)-2,2-dichlorocyclopropane-1-carboxamido)-2-chlorobenzamide], the pest or weed control at 50 µg/cm2 in assay [1] (setting [4]) and in assay [2] (setting [5]) was 50 to 100% each time. Besides, the “YFM (Biological Results, rating)” value in assay [3] is reported as “A (80-100)”.

Take `O=C(Nc1ccc(F)cc1)c1cc(NC(=O)[C@H]2[C@H](c3ccc(C(F)(F)F)cc3)C2(Cl)Cl)ccc1Cl` (relative stereo) [F81, trans-2-Chloro-5-(2,2-dichloro-3-(4-(trifluoromethyl)phenyl)cyclopropane-1-carboxamido)-N-(4-fluorophenyl)benzamide]: the pest or weed control at 50 µg/cm2 in assay [1] (setting [4]) and in assay [2] (setting [5]) was 50 to 100% in each case. Also, the “YFM (Biological Results, rating)” value in assay [3] is “A (80-100)”.

As to `Nc1c(F)cnc(NC(=O)c2cc(NC(=O)[C@H]3[C@H](c4cc(Cl)cc(Cl)c4)C3(Cl)Cl)ccc2Cl)c1F` (relative stereo) [F345, trans-N-(4-Amino-3,5-difluoropyridin-2-yl)-2-chloro-5-(2,2-dichloro-3-(3,5-dichlorophenyl)cyclopropane-1-carboxamido)benzamide], the pest or weed control at 50 µg/cm2 in assay [1] (setting [4]) and in assay [2] (setting [5]) was 50 to 100% each time. Moreover, in assay [3], the “YFM (Biological Results, rating)” value is “A (80-100)”.

For `Nc1ccc2c(c1)CN(C(=O)c1cc(NC(=O)[C@H]3[C@H](c4cc(Cl)cc(Cl)c4)C3(Cl)Cl)ccc1Cl)C2` (relative stereo) [F479, (trans)-N-(3-(5-Aminoisoindoline-2-carbonyl)-4-chlorophenyl)-2,2-dichloro-3-(3,5-dichlorophenyl)cyclopropane-1-carboxamide], the pest or weed control at 50 µg/cm2 in assay [1] (setting [6]) and in assay [2] (setting [7]) was 50 to 100% each time. Further, the YFM rating result in assay [3] is recorded as “A (80-100)”.

For `O=C(Nc1ccc(I)cc1)c1cc(NC(=O)[C@H]2[C@H](c3cc(Cl)cc(Cl)c3)C2(Cl)Cl)ccc1Cl` (relative stereo) [F193, trans-2-Chloro-5-(2,2-dichloro-3-(3,5-dichlorophenyl)cyclopropane-1-carboxamido)-N-(4-iodophenyl)benzamide], the pest or weed control at 50 µg/cm2 in assay [1] (setting [4]) and in assay [2] (setting [5]) was 50 to 100% each time. Further, the “YFM (Biological Results, rating)” value in assay [3] is “B (More than 0-Less than 80)”.

Consider `Nc1ccc(F)cc1NC(=O)c1cc(NC(=O)[C@H]2[C@H](c3cc(Cl)cc(Cl)c3)C2(Cl)Cl)ccc1Cl` [F373, N-(2-Amino-5-fluorophenyl)-2-chloro-5-((1R,3R)-2,2-dichloro-3-(3,5-dichlorophenyl)cyclopropane-1-carboxamido)benzamide], for which the pest or weed control at 50 µg/cm2 in assay [1] (setting [6]) and in assay [2] (setting [7]) was 50 to 100% each time. Besides, the YFM rating entry in assay [3] is “A (80-100)”.

In the case of `O=C(Nc1cccc2cc[nH]c12)c1cc(NC(=O)[C@H]2[C@H](c3cc(Cl)cc(Cl)c3)C2(Cl)Cl)ccc1Cl` (relative stereo) [F529, 2-Chloro-5-(trans)-(2,2-dichloro-3-(3,5-dichlorophenyl)cyclopropane-1-carboxamido)-N-(1H-indol-7-yl)benzamide], the pest or weed control at 50 µg/cm2 in assay [1] (setting [6]) and in assay [2] (setting [7]) was 50 to 100% throughout. The YFM rating result in assay [3] is recorded as “A (80-100)”.

As for `Nc1c(F)ccc(NC(=O)c2cc(NC(=O)[C@H]3[C@H](c4cc(Cl)cc(Cl)c4)C3(Cl)Cl)ccc2Cl)c1F` [F313, N-(3-Amino-2,4-difluorophenyl)-2-chloro-5-((1R,3R)-2,2-dichloro-3-(3,5-dichlorophenyl)cyclopropane-1-carboxamido)benzamide], the pest or weed control at 50 µg/cm2 in assay [1] (setting [4]) and in assay [2] (setting [5]) was 50 to 100% each time. The “YFM (Biological Results, rating)” value in assay [3] was “A (80-100)”.
